These results are taken from ChEMBL document CHEMBL1201862, “PubChem BioAssay data set” (2004).

The structures appear in SMILES notation.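 How tested: cells in 96-well plates exposed to compound for 48 hours at five concentrations. At the GI50, growth is halved.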 Activity calls are given as the source filed them. Cut-off read from the data, not from the text of the source: active = GI50 up to about 1.1 µM and inactive = higher.

Test systems include HOP-92; LOX IMVI; K562; EKVX; NCI/ADR-RES; HOP-62; HCC 2998; UO-31; 786-0; OVCAR-4; KM12; SF-539; SK-MEL-2; HL-60; HT-29; NCI-H522; NCI-H460; COLO 205; MOLT-4.
Test in all cases: inhibition of tumour cell growth, NCI panel, 48 h

As to `C[C@H](O)C1CC(Cn2nnc3c(N)ncnc32)C1(C)C` (stereo not given in full), the GI50 in the experiment on HOP-92 is > 100 µM (inactive); in the experiment on LOX IMVI it was > 100 µM (inactive); with K562, < 0.01 µM (active); with EKVX, > 100 µM (inactive); with NCI/ADR-RES it was > 100 µM (inactive); in the experiment with HOP-62, > 100 µM (inactive). The GI50 in the experiment with HCC 2998, in the experiment on UO-31, in the experiment on 786-0, in the experiment with OVCAR-4, with KM12 and with SF-539 was > 100 µM (inactive) in each case. The GI50 in the experiment on SK-MEL-2 is > 100 µM (inactive).
On to `CCCCCCCCCC1CC(=O)OC23CCCC(=O)C12O3` (stereo not given), for which the GI50 was > 100 µM (inactive) in the experiment with HOP-92; 26.7 µM (inactive) with HL-60; 70.5 µM (inactive) in the experiment on LOX IMVI; > 100 µM (inactive) in the experiment with HT-29; 94.6 µM (inactive) in the experiment on NCI-H522; 55.1 µM (inactive) in the experiment with K562. Besides, the GI50 with EKVX is > 100 µM (inactive); in the experiment with HOP-62, > 100 µM (inactive); with HCC 2998, 56.8 µM (inactive); in the experiment with UO-31 it was > 100 µM (inactive); in the experiment with 786-0, > 100 µM (inactive); in the experiment with NCI-H460, > 100 µM (inactive). Also, the GI50 is > 100 µM (inactive) in the experiment on OVCAR-4; > 100 µM (inactive) in the experiment on COLO 205; 82.2 µM (inactive) with KM12; > 100 µM (inactive) in the experiment with SF-539; > 100 µM (inactive) with SK-MEL-2; 26.7 µM (inactive) in the experiment on MOLT-4.
As for `COc1ccc2c(c1)C1C(CO2)C(c2ccccc2)=NN1c1ccccc1` (stereo not given), the GI50 is > 100 µM (inactive) with HOP-92; 99.5 µM (inactive) in the experiment on HL-60; > 100 µM (inactive) in the experiment on LOX IMVI; > 100 µM (inactive) in the experiment with HT-29; > 100 µM (inactive) with NCI-H522; > 100 µM (inactive) in the experiment with K562. For the same compound, the GI50 in the experiment with EKVX, in the experiment with HOP-62, in the experiment with HCC 2998, in the experiment on UO-31, in the experiment with 786-0 and with NCI-H460 was > 100 µM (inactive) throughout. Further, the GI50 in the experiment with COLO 205 is > 100 µM (inactive); in the experiment with KM12, > 100 µM (inactive); with SF-539, > 100 µM (inactive); with SK-MEL-2, > 100 µM (inactive); in the experiment on MOLT-4, 94.8 µM (inactive).
Consider `O=C1C2C(C(=O)N1c1ccccc1)C1(Br)c3ccccc3C2(Br)C2C(=O)N(c3ccccc3)C(=O)C21` (stereo not given), for which the GI50 with HOP-92 was > 10 µM (inactive); in the experiment with HL-60 it was > 31.6 µM (inactive); in the experiment with LOX IMVI, > 31.6 µM (inactive); in the experiment with HT-29, 27.8 µM (inactive); in the experiment on NCI-H522 it was > 10 µM (inactive); in the experiment on K562, 6.27 µM (inactive). The GI50 in the experiment on EKVX is > 31.6 µM (inactive); in the experiment with HOP-62 it was > 10 µM (inactive); with HCC 2998 it was 15 µM (inactive); in the experiment on UO-31, 17.5 µM (inactive); with 786-0 it was 20.5 µM (inactive); in the experiment on NCI-H460, > 31.6 µM (inactive). The GI50 with OVCAR-4 was 7.21 µM (inactive); with COLO 205, > 31.6 µM (inactive); with KM12 it was 16.6 µM (inactive); in the experiment with SF-539 it was 27.2 µM (inactive); in the experiment with SK-MEL-2, 31.4 µM (inactive); in the experiment with MOLT-4 it was 20.6 µM (inactive).
On to `COC(=O)C1CC/C(=N/C2c3ccccc3-c3ccccc32)N1` (stereo not given), for which the GI50 in the experiment on HOP-92 was 14.1 µM (inactive); in the experiment on HL-60 it was > 100 µM (inactive); in the experiment on LOX IMVI it was > 10 µM (inactive); in the experiment with HT-29 it was > 100 µM (inactive); with NCI-H522, 19.6 µM (inactive); in the experiment on K562, > 100 µM (inactive). For the same compound, the GI50 in the experiment on EKVX is > 100 µM (inactive); in the experiment on HOP-62 it was > 100 µM (inactive); in the experiment on HCC 2998, 57.9 µM (inactive); with UO-31, > 100 µM (inactive); with 786-0, > 100 µM (inactive); with NCI-H460, 32.7 µM (inactive). The GI50 in the experiment with OVCAR-4 was > 100 µM (inactive); in the experiment on COLO 205, 47.8 µM (inactive); in the experiment with KM12 it was > 100 µM (inactive); in the experiment on SK-MEL-2, > 100 µM (inactive); in the experiment on MOLT-4, 24.2 µM (inactive).
In the case of `C[C@H]1OC(=O)[C@@H]2N=NN(Cc3ccccc3)[C@H]12`, the GI50 with HOP-92, with HT-29, with NCI-H522, with K562, in the experiment with NCI/ADR-RES and in the experiment on HOP-62 was > 100 µM (inactive) each time. Also, the GI50 in the experiment with HCC 2998, with UO-31, with 786-0, in the experiment on NCI-H460, in the experiment on OVCAR-4 and in the experiment with COLO 205 was > 100 µM (inactive) in each case. The GI50 with KM12, in the experiment with SF-539, with SK-MEL-2 and in the experiment on MOLT-4 was > 100 µM (inactive) each time.
Take `N#Cc1ccc2cc3c(cc2c1)OCO3`: the GI50 in the experiment on HOP-92 was 35.6 µM (inactive); in the experiment with HL-60, 77.1 µM (inactive); in the experiment with LOX IMVI it was > 100 µM (inactive); with HT-29, > 100 µM (inactive); with NCI-H522, > 100 µM (inactive); in the experiment on K562, 89.5 µM (inactive). Moreover, the GI50 in the experiment with HOP-62 is > 100 µM (inactive); in the experiment with HCC 2998, > 100 µM (inactive); with UO-31 it was 21.5 µM (inactive); with 786-0, > 100 µM (inactive); with NCI-H460 it was > 100 µM (inactive); with OVCAR-4, > 100 µM (inactive). The GI50 in the experiment with COLO 205 is > 100 µM (inactive); in the experiment with KM12, > 100 µM (inactive); with SF-539, 27 µM (inactive); in the experiment with SK-MEL-2, > 100 µM (inactive); with MOLT-4, 49.2 µM (inactive).
Take `CC(C)N(C(C)C)P(OCCC#N)OC1CC(n2cnc3c(=O)[nH]cnc32)OC1COC(=O)NCCCCCCNC(=O)OC(C)(C)c1ccc(-c2ccccc2)cc1` (stereo not given): the GI50 in the experiment on HOP-92 was 35.9 µM (inactive); with HL-60 it was 14.7 µM (inactive); in the experiment with LOX IMVI it was 18.2 µM (inactive); in the experiment with HT-29, 43.2 µM (inactive); in the experiment with NCI-H522 it was 15.6 µM (inactive); in the experiment with K562, 13.7 µM (inactive). Moreover, the GI50 in the experiment on EKVX was > 100 µM (inactive); in the experiment with HOP-62 it was 23.4 µM (inactive); with HCC 2998, 25.5 µM (inactive); in the experiment on UO-31 it was 17.5 µM (inactive); with 786-0, 23 µM (inactive); in the experiment with NCI-H460, 22.9 µM (inactive). The GI50 in the experiment with OVCAR-4 is 19.7 µM (inactive); with COLO 205, 17.4 µM (inactive); with KM12 it was 18.7 µM (inactive); with SF-539, 24 µM (inactive); with SK-MEL-2 it was 30.4 µM (inactive); in the experiment on MOLT-4, 18.7 µM (inactive).
Turning to `CC1(C)[C@@H](Cn2cc(I)c(=O)[nH]c2=O)CC[C@@]1(C)CO`, the GI50 was > 100 µM (inactive) in the experiment on HOP-92; > 100 µM (inactive) with LOX IMVI; 45.1 µM (inactive) in the experiment on K562; > 100 µM (inactive) with EKVX; > 100 µM (inactive) with NCI/ADR-RES; > 100 µM (inactive) in the experiment with HOP-62. The GI50 in the experiment on HCC 2998, in the experiment on UO-31, with 786-0, in the experiment with OVCAR-4, in the experiment with COLO 205 and in the experiment on KM12 was > 100 µM (inactive) each time. For the same compound, the GI50 in the experiment on SK-MEL-2 is > 100 µM (inactive).
Take `CNC(N)NC`: the GI50 in the experiment with HOP-92, in the experiment with HL-60, with LOX IMVI, with HT-29, with NCI-H522 and in the experiment on K562 was > 100 µM (inactive) in each case. Moreover, the GI50 with EKVX, in the experiment on HOP-62, in the experiment with HCC 2998, in the experiment with UO-31, in the experiment with 786-0 and in the experiment with NCI-H460 was > 100 µM (inactive) throughout. Moreover, the GI50 with OVCAR-4, in the experiment on COLO 205, in the experiment on KM12, in the experiment with SF-539, in the experiment on SK-MEL-2 and in the experiment with MOLT-4 was > 100 µM (inactive) each time.
Regarding `COc1ccc2c(c1)CCC(OS(=O)(=O)CC13CCC(CC1=O)C3(C)C)C2=O` (stereo not given), the GI50 was 31.8 µM (inactive) in the experiment with HOP-92; 18.5 µM (inactive) with HL-60; 15.6 µM (inactive) in the experiment with LOX IMVI; 25.2 µM (inactive) in the experiment on NCI-H522; 24.3 µM (inactive) in the experiment on K562; > 100 µM (inactive) with EKVX. The GI50 is 29.2 µM (inactive) in the experiment with HOP-62; 23 µM (inactive) in the experiment on HCC 2998; 35.6 µM (inactive) in the experiment with UO-31; 18.8 µM (inactive) in the experiment on 786-0; 18.1 µM (inactive) with NCI-H460; 43.1 µM (inactive) in the experiment with OVCAR-4. The GI50 in the experiment on COLO 205 is 33.7 µM (inactive); with KM12, 19.5 µM (inactive); in the experiment on SF-539 it was 21.5 µM (inactive); with SK-MEL-2, 23.9 µM (inactive); in the experiment on MOLT-4, 20.8 µM (inactive).
Consider `CC1=C2C(=O)C(C)(C)C=C2C(=O)[C@](C)(O)C12CC2` [DEHYDROILLUDIN M], for which the GI50 in the experiment on HOP-92 is > 1 µM (active); with HL-60, 0.247 µM (active); with LOX IMVI, 0.402 µM (active); in the experiment on HT-29, 0.248 µM (active); in the experiment on NCI-H522, 0.245 µM (active); with K562, > 1 µM (active). In addition, the GI50 was > 1 µM (active) in the experiment with EKVX; > 1 µM (active) in the experiment on HOP-62; > 0.815 µM (active) in the experiment with HCC 2998; > 1 µM (active) with UO-31; 0.537 µM (active) in the experiment on 786-0; 0.23 µM (active) in the experiment on NCI-H460. Besides, the GI50 in the experiment on OVCAR-4 was 0.766 µM (active); in the experiment on COLO 205, > 1 µM (active); in the experiment on KM12 it was > 0.935 µM (active); in the experiment on SF-539, > 1 µM (active); in the experiment with SK-MEL-2, 0.614 µM (active); with MOLT-4 it was > 1 µM (active).
